Data reported in US9567625B2, “Method for detection of microorganism and kit for detection of microorganism” (MORINAGA MILK INDUSTRY CO., LTD., priority 2006, dated 2017).

Legend:
[1] = system: 16S rRNA gene of Listeria; test: PCR targeting the 16S rRNA gene after EMA treatment and topoisomerase poison or DNA gyrase poison treatment; format: cell-based, Listeria monocytogenes; conditions: Listeria injured cells
Procedure: (§1) The live cell count of the live cell suspension was 1.3×10^8 cfu/ml
(§2) Therefore, the time for leaving the suspension at 4° C. under light shielding after the addition of EMA was shortened to 5 minutes, and the visible light irradiation time was also shortened to 5 minutes.
(§3) As described above, 1 tube of 1 ml EMA-untreated live cell suspension, […] of 1 ml EMA-treated live cell suspension, 1 tube of 1 ml EMA-untreated injured cell suspension, and 7 tubes of 1 ml EMA-treated injured cell suspension were prepared.
(§4) The EMA-treated live cell and injured cell suspensions were divided into 6 sets, each of which consisted of 1 tube of the live cell suspension and 1 tube of injured cell suspension.
The “PCR thermal cycle profile for amplification of 16S rRNA gene” mentioned in Example 3, 3-2) (Table 3) was applied.
(§5) Each of the DNA solutions prepared in 2-3) was diluted to 15 ng/μl with TE buffer, and 10 μl of the diluted solution was used as a template DNA in 3-1-1) or 3-2-1) mentioned above. That is, 150 ng of the template DNA was contained in 50 μl of the PCR mixture. As a negative control, 10 μl of TE buffer was used.
According to the PCR thermal cycle profile shown in 3-2-2) or 3-2-3) mentioned above, PCR was performed by using a real-time PCR apparatus i Cycler® (Biorad, model number: iQ).
(§6) For the detection of the hlyA gene amplification product, 3% agarose gel was used.

[2] = system: hlyA gene of Listeria; test: PCR targeting the hlyA gene after EMA treatment and topoisomerase poison or DNA gyrase poison treatment; format: cell-based, Listeria monocytogenes; conditions: Listeria injured cells
Procedure: as §1, §2, §3, §4
(§7) A master mix (total volume: 50 μl) of the following composition was prepared. • Ex-Taq® (Takara Shuzo, catalog number: RR001B; TaKaRa Ex Taq enzyme): 0.25 μl • 10× Ex-Taq® Buffer (Takara Shuzo, catalog number: RR001B): 5 μl • dNTP mixture (Takara Shuzo, catalog number: RR001B): 4 μl • 5 pmol/μl SEQ ID NO: 7 (hlyA-F) DNA: 2.5 μl • 5 pmol/μl SEQ ID NO: 8 (hlyA-R) DNA: 2.5 μl • 2×SYBR® Green (cyanine dye) (BMA, catalog number: 50513): 10 μl • Sterilized water: 15.75 μl • Template DNA (15 ng/μl): 10 μl 3-1-2) PCR Thermal Cycle Profile for Amplification of hlyA Gene
as §5, with “2-3) mentioned above” for “2-3)”, “3-1-1)” for “3-1-1) or 3-2-1)”
According to the PCR thermal cycle profile shown in 3-1-2) mentioned above, PCR was performed by using a real-time PCR apparatus i Cycler® (Biorad, model number: iQ).
as §6

[3] = system: 23S rRNA gene of Enterobacter; test: Real-time PCR and TM analysis targeting the 23S rRNA gene after ciprofloxacin treatment; format: cell-based, Enterobacter sakazakii; conditions: ciprofloxacin 72 hours; for result of PCR: PCR terminated after 27 cycles
Procedure: as §7, with “enzyme:” for “enzyme):”, “1 (23S-F)” for “7 (hlyA-F)”, “2 (23S-R) DNA: 2.5 μl • 5 pmol/μl SEQ ID NO: 3 (23S-MF) DNA: 2.5 μl • 5 pmol/μl SEQ ID NO: 4 (23S-MR)” for “8 (hlyA-R)”, “μl” for “μl 3-1-2) PCR Thermal Cycle Profile for Amplification of hlyA Gene”
The primers of SEQ ID NOS: 1 and 2 are primers for amplifying substantially all the region of 23S rRNA, and they provide an amplification fragment of about 2840 bp mainly from gram-negative bacteria. The primers of SEQ ID NOS: 3 and 4 correspond to the center region of 23S rRNA, and they provide an amplification fragment of about 900 bp from gram-positive bacteria (also from gram negative bacteria).
Each of the DNA solutions prepared in 1-3) was diluted to 15 ng/μl with TE buffer, and 10 μl of the diluted solution was used as a template DNA in 2-1). That is, 150 ng of the template DNA was contained in 50 μl of the PCR reaction mixture. As a negative control, 10 μl of TE buffer was used.
According to the PCR thermal cycle profile shown in 2-2) mentioned above, PCR and TM analysis (melting temperature analysis) of the amplification product were performed by using a real-time PCR apparatus i Cycler® (Biorad, model number: iQ). The threshold value (boundary value) of real-time PCR was set to a value obtained by multiplying the standard deviation SD of fluorescence amounts obtained with SYBR® Green (cyanine dye) for 0 to 10 cycles by 10. In each real-time PCR amplification curve, number of cycle showing a value exceeding the threshold value is referred to as “Ct value” hereafter.

[4] = system: 23S rRNA gene of Listeria; test: Real-time PCR targeting the 23S rRNA gene after ciprofloxacin treatment; format: cell-based, Listeria monocytogenes; conditions: PCR terminated after 20 cycles
Procedure: as §7, with “enzyme:” for “enzyme):”, “1 (23S-F)” for “7 (hlyA-F)”, “2 (23S-R) DNA: 2.5 μl • 5 pmol/μl SEQ ID NO: 3 (23S-MF) DNA: 2.5 μl • 5 pmol/μl SEQ ID NO: 4 (23S-MR)” for “8 (hlyA-R)”, “μl” for “μl 3-1-2) PCR Thermal Cycle Profile for Amplification of hlyA Gene”
The primers of SEQ ID NOS: 1 and 2 are primers for amplifying substantially all the region of 23S rRNA, and they provide an amplification fragment of about 2840 bp mainly from gram-negative bacteria. […]
According to the PCR thermal cycle profile shown in 2-2) mentioned above, PCR and TM analysis (melting temperature analysis) of the amplification product were performed by using a real-time PCR apparatus i Cycler® (Biorad, model number: iQ). The threshold value (boundary value) of real-time PCR was set to a value obtained by multiplying the standard deviation SD of fluorescence amounts obtained with SYBR® Green (cyanine dye) for 0 to 10 cycles by 10. […]

[5] = system: 16S rRNA gene of the other bacteria; test: PCR targeting the 16S rRNA gene after EMA treatment, electrophoresis; format: cell-based; conditions: EMA-treated injured cells of the other bacteria, EMA 10 μl of 1000 μg/ml per 1 ml, 4° C. 30 minutes, visible light 10 minutes
Procedure: (§8) The live cell counts of these live cell suspensions were Escherichia coli: 3.2×10^8 cfu/ml, Citrobacter: 6.7×10^7 cfu/ml, Salmonella: 1.9×10^8 cfu/ml, and Klebsiella: 4.8×10^8 cfu/ml.
(§9) The live cell counts of these live cell suspensions were Bacillus: 3.0×10^7 cfu/ml, Listeria: 1.3×10^8 cfu/ml, and Staphylococcus: 1.1×10^6 cfu/ml.
(§10) 10 μl of an EMA solution prepared at a concentration of 1000 μg/ml by dissolving EMA (Sigma, catalog number: E2028) in sterilized water, and filtering the solution through a 0.45-μm microfilter was added to each of the suspensions of the gram-negative bacteria (live cells and injured cells) and gram-positive bacteria (live cells and injured cells) in a volume of 1 ml, and the mixture was left at 4° C. for 30 minutes under light shielding. Then, the suspension was placed on ice, and irradiated with visible light of 500 W from a lamp (FLOOD PRF, 100 V, 500 W, Iwasaki Electric Co., Ltd.) disposed at a distance of 20 cm from the suspension for 10 minutes. The above steps of adding the EMA solution and irradiating visible light may also be referred to as the “EMA treatment”.
(§11) 990 μl of physiological saline was added to each microtube, and the mixture was sufficiently stirred. […]

[6] = system: 16S rRNA gene of Klebsiella; test: as above; format: cell-based, Klebsiella oxytoca; conditions: EMA-treated injured cells of Klebsiella, EMA 10 μl of 1000 μg/ml per 1 ml, 4° C. 30 minutes, visible light 10 minutes
Procedure: as §8, §10, §11

[7] = system: 23S rRNA gene of gram-negative bacteria and gram-positive bacteria; test: PCR targeting the 23S rRNA gene after EMA treatment, electrophoresis; format: cell-based; conditions: 150 ng template DNA in 50 μl
Procedure: as §8, §9, §10, §11

[8] = system: 16S rRNA gene of Citrobacter; test: PCR targeting the 16S rRNA gene after EMA treatment, electrophoresis; format: cell-based, Citrobacter koseri; conditions: EMA-treated injured cells of Citrobacter, EMA 10 μl of 1000 μg/ml per 1 ml, 4° C. 30 minutes, visible light 10 minutes
Procedure: as §8, §10, §11

[9] = poison used together with EMA treatment, 30° C. for 30 minutes
[10] = EMA treatment alone (5 minutes, visible light 5 minutes)

How did the “inhibition of DNA amplification” value [1, 9] turn out when `CC[C@@]1(O)C(=O)OCc2c1cc1n(c2=O)Cc2cc3ccccc3nc2-1` [camptothecin] was run?
Its value is “markedly inhibited”.

For `O=C1c2c(O)ccc(O)c2C(=O)c2c(NCCNCCO)ccc(NCCNCCO)c21` [mitoxantrone], which “inhibition of DNA amplification” value [2, 9] is on record?
The value was “markedly inhibited”.

With `O=C(O)c1cn(C2CC2)c2cc(N3CCNCC3)c(F)cc2c1=O` [ciprofloxacin] as the molecule, how does the “Ct (injured cells, 72 hours of Cip)−Ct (injured cells, No Cip)” value ([3]; Enterobacter injured cells) read?
The value was 17.

And the “result of PCR” value ([3]; Enterobacter injured cells)?
Its value is “negative”.

And the “Ct (live cells, 72 hours of Cip)−Ct (live cells, No Cip)” value ([3]; Enterobacter live cells)?
The value was 13.

What about the “result of PCR” value ([3]; Enterobacter live cells) of the same molecule?
The value was “positive”.

What about the “TM pattern analysis of the PCR amplification product” value ([3]; Enterobacter sakazakii injured cells) of the same molecule?
Its value is “is not the targeted amplification product”.

What about the “TM pattern analysis of the PCR amplification product” value ([3]; Enterobacter sakazakii live cells) of the same molecule?
Its value is “corresponds to the 23S rRNA gene as the target”.

What about the “result of PCR” value ([4]; Listeria injured cells) of the same molecule?
The value was “negative”.

What about the “result of PCR” value ([4]; Listeria live cells) of the same molecule?
Its value is “positive”.

Which results are given for `CC[n+]1c(-c2ccccc2)c2cc(N=[N+]=[N-])ccc2c2ccc(N)cc21` [EMA, ethidium monoazide]?
inhibition of DNA amplification [1, 10]: only slightly inhibited; PCR amplification product [5]: amplification products were observed; inhibition of DNA amplification [2, 10]: only slightly inhibited; PCR amplification product [6]: no PCR amplification product was observed; inhibition of PCR ([7]; injured cells at a level of 10^8 cfu/ml): completely inhibited; inhibition of PCR ([7]; live cells): not substantially completely inhibited; PCR amplification product [8]: no PCR amplification product was observed

What does the source list for `COc1cc([C@@H]2c3cc4c(cc3[C@@H](O[C@@H]3O[C@@H]5CO[C@@H](C)O[C@H]5[C@H](O)[C@H]3O)[C@H]3COC(=O)[C@H]23)OCO4)cc(OC)c1O` [etoposide]?
inhibition of DNA amplification [1, 9]: markedly inhibited; inhibition of DNA amplification [2, 9]: markedly inhibited

Which “inhibition of DNA amplification” value [1, 9] does the source give for `Cc1c2ccncc2c(C)c2c1[nH]c1ccccc12` [ellipticine] here?
Its value is “markedly inhibited”.
